Assay results published in ChEMBL document CHEMBL1697781, “Assessment of the health effects of chemicals in humans: II. Construction of an adverse effects database for QSAR modeling” (Curr Drug Discov Technol, 2004).

Key:
Settings in all cases: human; call rule not given here
Hepatotoxicity [1] = experiment: FDA HLAED, liver enzyme composite activity
Hepatotoxicity [2] = experiment: FDA HLAED, serum glutamic oxaloacetic transaminase (SGOT) increase
Hepatotoxicity [3] = experiment: FDA HLAED, serum glutamic pyruvic transaminase (SGPT) increase
Hepatotoxicity [4] = experiment: FDA HLAED, gamma-glutamyl transferase (GGT) increase
Hepatotoxicity [5] = experiment: FDA HLAED, lactate dehydrogenase (LDH) increase
Hepatotoxicity [6] = experiment: FDA HLAED, alkaline phosphatase increase
For GGT Increase - Index Value in this document: reference of the scale not given here.
For LDH Increase - Index Value in this document: reference of the scale not given here.

| SMILES | Composite Activity - Active (Hepatotoxicity [1]; Liver) | Composite Activity - Marginal (Hepatotoxicity [1]; Liver) | SGOT Increase - Activity Score (Hepatotoxicity [2]) | SGOT Increase - Index Value (Hepatotoxicity [2]) | SGOT Increase - Number of Reports (Hepatotoxicity [2]) | SGPT Increase - Activity Score (Hepatotoxicity [3]) | SGPT Increase - Index Value (Hepatotoxicity [3]) | SGPT Increase - Number of Reports (Hepatotoxicity [3]) | GGT Increase - Activity Score (Hepatotoxicity [4]) | GGT Increase - Index Value (Hepatotoxicity [4]) | GGT Increase - Number of Reports (Hepatotoxicity [4]) | LDH Increase - Activity Score (Hepatotoxicity [5]) | LDH Increase - Index Value (Hepatotoxicity [5]) | LDH Increase - Number of Reports (Hepatotoxicity [5]) | Alkaline Phosphatase Increase - Activity Score (Hepatotoxicity [6]) | Alkaline Phosphatase Increase - Index Value (Hepatotoxicity [6]) | Alkaline Phosphatase Increase - Number of Reports (Hepatotoxicity [6]) | Composite Activity - Active (Hepatotoxicity [1]) | Composite Activity - Marginal (Hepatotoxicity [1]) | Composite Activity - Score (Hepatotoxicity [1]) | other results |
| --- | --- | --- | --- | --- | --- | --- | --- | --- | --- | --- | --- | --- | --- | --- | --- | --- | --- | --- | --- | --- | --- |
| c1ccc([C@H]2CN3CCSC3=N2)cc1 [LEVAMISOLE] | 3 | 0 | Active | 26.5 | >= 4 | Inactive | 8.8 | < 4 | Inactive | 5.9 | < 4 | Active | 29.4 | >= 4 | Active | 38.3 | >= 4 | – | – | – | Composite Activity - Score (Hepatotoxicity [1]; Liver): Active |
| CC(C)(C)NC[C@H](O)COc1cccc2c1CCCC2=O [LEVOBUNOLOL] | – | – | Inactive | 0 | < 4 | Inactive | 0 | < 4 | Inactive | 0 | < 4 | Inactive | 0 | < 4 | Inactive | 0 | < 4 | 0 | 0 | Inactive | – |
| C[C@@H]1CN([C@H]2CC[C@](C#N)(c3ccc(F)cc3)CC2)CC[C@]1(C(=O)O)c1ccccc1 [LEVOCABASTINE] | – | – | Inactive | 0 | < 4 | Inactive | 0 | < 4 | Inactive | 0 | < 4 | Inactive | 0 | < 4 | Inactive | 0 | < 4 | 0 | 0 | Inactive | – |
| C[N+](C)(C)C[C@H](O)CC(=O)[O-] [LEVOCARNITINE] | – | – | Inactive | 0 | < 4 | Inactive | 0 | < 4 | Inactive | 0 | < 4 | Inactive | 0 | < 4 | Inactive | 0 | < 4 | 0 | 0 | Inactive | – |
| C[C@H]1COc2c(N3CCN(C)CC3)c(F)cc3c(=O)c(C(=O)O)cn1c23.C[C@H]1COc2c(N3CCN(C)CC3)c(F)cc3c(=O)c(C(=O)O)cn1c23.O [LEVOFLOXACIN] | – | – | Inactive | 0 | < 4 | Inactive | 0 | < 4 | Inactive | 0 | < 4 | Inactive | 0 | < 4 | Inactive | 0 | < 4 | 0 | 0 | Inactive | – |
| C#C[C@]1(O)CC[C@H]2[C@@H]3CCC4=CC(=O)CC[C@@H]4[C@H]3CC[C@@]21CC [LEVONORGESTREL] | 5 | 0 | Active | 39.7 | >= 4 | Active | 22.7 | >= 4 | Active | 34 | >= 4 | Active | 28.3 | >= 4 | Active | 34 | >= 4 | – | – | – | Composite Activity - Score (Hepatotoxicity [1]; Liver): Active |
| NCCCC[C@H](N[C@@H](CCc1ccccc1)C(=O)O)C(=O)N1CCC[C@H]1C(=O)O [LISINOPRIL ANHYDROUS] | – | – | Inactive | 1.5 | >= 4 | Inactive | 1.4 | >= 4 | Inactive | 1 | >= 4 | Inactive | 1.2 | >= 4 | Inactive | 2 | >= 4 | 0 | 0 | Inactive | – |
| N#Cc1cc(NC(=O)C(=O)O)c(Cl)c(NC(=O)C(=O)O)c1 [LODOXAMIDE] | – | – | Inactive | 0 | < 4 | Inactive | 0 | < 4 | Inactive | 0 | < 4 | Inactive | 0 | < 4 | Inactive | 0 | < 4 | 0 | 0 | Inactive | – |
| N[C@@H](C(=O)N[C@@H]1C(=O)N2C(C(=O)O)=C(Cl)CC[C@H]12)c1ccccc1 [LORACARBEF ANHYDROUS] | – | – | Inactive | 0.2 | < 4 | Inactive | 0.2 | < 4 | Inactive | 0.1 | < 4 | Inactive | 0 | < 4 | Inactive | 0.2 | < 4 | 0 | 0 | Inactive | – |
| CCOC(=O)N1CCC(=C2c3ccc(Cl)cc3CCc3cccnc32)CC1 [LORATADINE] | 0 | 0 | Inactive | 0.9 | >= 4 | Inactive | 0.6 | >= 4 | Inactive | 0.5 | >= 4 | Inactive | 0.2 | < 4 | Inactive | 0.7 | >= 4 | – | – | – | Composite Activity - Score (Hepatotoxicity [1]; Liver): Inactive |
| CCCCc1nc(Cl)c(CO)n1Cc1ccc(-c2ccccc2-c2nn[nH]n2)cc1 [LOSARTAN] | – | – | Inactive | 0.8 | >= 4 | Inactive | 1 | >= 4 | Inactive | 0.6 | < 4 | Inactive | 0.4 | < 4 | Inactive | 0.4 | < 4 | 0 | 0 | Inactive | – |
| CNCCCC12CCC(c3ccccc31)c1ccccc12 [MAPROTILINE] | 0 | 0 | Inactive | 0.3 | < 4 | Inactive | 0.3 | < 4 | Inactive | 0 | < 4 | Inactive | 0 | < 4 | Inactive | 0.5 | < 4 | – | – | – | Composite Activity - Score (Hepatotoxicity [1]; Liver): Inactive |
